Paper PMC2992351 (ACS medicinal chemistry letters, 2010)

Molecular target: Grb2 SH2 domain (Homo sapiens, UniProt P62993)
Assay: Isothermal titration calorimetry
Type: binding
Settings: for Ka / ΔG^o / ΔH^o / ΔS^o / −TΔS^o: ITC at 298 K, average of at least two experiments; for Ka: association constant

Chain of Grb2 SH2 domain (P62993 60-152 limits assumed): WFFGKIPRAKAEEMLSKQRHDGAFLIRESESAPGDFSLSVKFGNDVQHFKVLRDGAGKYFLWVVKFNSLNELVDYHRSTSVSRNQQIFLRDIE

| Ka | ΔG^o | ΔH^o | ΔS^o | −TΔS^o | fold lower affinity than acyclic control 4 (ITC, macrocycle vs its acyclic control) | difference in binding enthalpies of 7 and 8 (ITC, 7 vs 8) | fold greater affinity than linear control 8 (ITC, macrocycle 7 vs linear control 8) | Substance |
| --- | --- | --- | --- | --- | --- | --- | --- | --- |
| (4.7 ± 0.11) × 10^4 M^−1 | -6.4 ± 0.01 kcal/mol | -3.5 ± 0.26 kcal/mol | 9.8 ± 0.20 cal mol^−1K^−1 | -2.9 ± 0.06 kcal/mol | about 10 fold | – | – | pYVNG (head to tail) [compound 1] |
| (2.3 ± 0.21) × 10^6 M^−1 | -8.7 ± 0.06 kcal/mol | -4.3 ± 0.32 kcal/mol | 14.8 ± 0.54 cal mol^−1K^−1 | -4.4 ± 0.16 kcal/mol | – | – | – | pYVNV (head to tail) [compound 2] |
| (1.0 ± 0.20) × 10^7 M^−1 | -9.6 ± 0.09 kcal/mol | -4.3 ± 0.57 kcal/mol | 17.7 ± 1.20 cal mol^−1K^−1 | -5.3 ± 0.36 kcal/mol | – | 2 kcal/mol | about two-fold | pYVNVP (head to tail) [compound 7] |
